In patent US20220089575A1, “FARNESOID X RECEPTOR AGONISTS AND USES THEREOF” (Metacrine, Inc., priority 2017, published 2022):
pEC50: −log10 of the molar value.

target: T1, hFXR (Homo sapiens, UniProt Q96RI1); assay: In Vitro FXR Assay (TK): TK-ECRE-luc reporter in transfected CV-1 cells; format: cell-based; conditions: 18 hrs, luminescence, maximum efficacy of <25% of the Fexarmine control classified as '+'
T1 construct: expressed in transfected cells; host or cells: CV-1 cells
T1 sequence (Q96RI1 1-486): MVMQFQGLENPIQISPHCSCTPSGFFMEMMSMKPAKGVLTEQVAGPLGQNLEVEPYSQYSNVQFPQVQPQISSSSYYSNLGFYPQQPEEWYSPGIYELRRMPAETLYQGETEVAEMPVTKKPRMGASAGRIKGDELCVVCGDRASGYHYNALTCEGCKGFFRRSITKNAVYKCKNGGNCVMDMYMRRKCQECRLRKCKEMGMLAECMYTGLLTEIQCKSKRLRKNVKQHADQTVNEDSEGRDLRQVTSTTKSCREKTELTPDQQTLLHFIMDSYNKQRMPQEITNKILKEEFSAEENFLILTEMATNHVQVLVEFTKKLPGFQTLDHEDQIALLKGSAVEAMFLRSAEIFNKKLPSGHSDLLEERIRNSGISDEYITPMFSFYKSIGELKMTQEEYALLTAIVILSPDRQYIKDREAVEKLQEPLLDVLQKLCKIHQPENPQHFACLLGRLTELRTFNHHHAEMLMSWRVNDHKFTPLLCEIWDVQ
T1 sequence (P19793 1-462 partner): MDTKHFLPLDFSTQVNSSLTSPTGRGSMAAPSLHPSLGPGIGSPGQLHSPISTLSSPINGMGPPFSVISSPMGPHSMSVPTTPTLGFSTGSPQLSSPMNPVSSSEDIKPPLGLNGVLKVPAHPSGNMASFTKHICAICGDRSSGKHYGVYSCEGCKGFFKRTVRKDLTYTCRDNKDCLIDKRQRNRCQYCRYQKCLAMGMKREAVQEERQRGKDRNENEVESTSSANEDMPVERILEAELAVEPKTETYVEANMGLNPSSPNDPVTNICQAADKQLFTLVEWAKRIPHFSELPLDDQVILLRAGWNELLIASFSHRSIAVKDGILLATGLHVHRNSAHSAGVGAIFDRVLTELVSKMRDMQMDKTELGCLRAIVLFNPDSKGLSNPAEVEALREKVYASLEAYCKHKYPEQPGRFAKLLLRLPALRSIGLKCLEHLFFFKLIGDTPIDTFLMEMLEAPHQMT
Procedure, shortened: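 Transiently transfected monkey CV-1 cells (hFXR, hRXR, TK-ECRE-luciferase, YFP control plasmid), held in stripped-serum DMEM, received compound dilutions from DMSO for 18 h at 37 °C. Activity was taken from luminescence of the cell lysates.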

pEC50, ≥ 6.60:
COc1ccc([C@H]2CC[C@H](CN(c3cccc(-c4cnn(C5CC5)c4)c3)C(=O)[C@H]3CC[C@H](OC(=O)N4CC(N)C4)CC3)CC2)cc1C [Compound 7.39, trans-4-((3-(1-Cyclopropyl-1H-pyrazol-4-yl)phenyl)((trans-4-(4-methoxy-3-methylphenyl)cyclohexyl)methyl)carbamoyl)cyclohexyl 3-aminoazetidine-1-carboxylate]
COc1ccc([C@H]2CC[C@H](CN(c3cc(-c4cnn(C(C)C)c4)ccn3)C(=O)[C@H]3CC[C@H](OC(=O)N4CC(O)C4)CC3)CC2)nc1C#N [Compound 7.40, trans-4-(((trans-4-(6-Cyano-5-methoxypyridin-2-yl)cyclohexyl)methyl)(4-(1-isopropyl-1H-pyrazol-4-yl)pyridin-2-yl)carbamoyl) cyclohexyl 3-hydroxyazetidine-1-carboxylate]
COC(=O)CC1CN(C(=O)O[C@H]2CC[C@H](C(=O)N(C[C@H]3CC[C@H](c4ccc(OC)c(C)c4)CC3)c3cccc(-c4cnn(C5CC5)c4)c3)CC2)C1 [Compound 7.41, trans-4-((3-(1-Cyclopropyl-1H-pyrazol-4-yl)phenyl)((trans-4-(4-methoxy-3-methylphenyl)cyclohexyl)methyl)carbamoyl)cyclohexyl 3-(2-methoxy-2-oxoethyl)azetidine-1-carboxylate]
COc1ccc([C@H]2CC[C@H](CN(c3cccc(-c4cnn(C5CC5)c4)c3)C(=O)[C@H]3CC[C@H](OC(=O)N4CC(CC(=O)O)C4)CC3)CC2)cc1C [Compound 7.42, 2-(1-(((trans-4-((3-(1-Cyclopropyl-1H-pyrazol-4-yl)phenyl)((trans-4-(4-methoxy-3-methylphenyl)cyclohexyl)methyl)carbamoyl)cyclohexyl)oxy)carbonyl)azetidin-3-yl)acetic acid]
COc1ccc([C@H]2CC[C@H](CN(c3cccc(-c4cnn(C(C)C)c4)c3)C(=O)[C@H]3CC[C@H](OC(=O)N4CC(O)C4)CC3)CC2)nc1C#N [Compound 7.43, trans-4-(((trans-4-(6-Cyano-5-methoxypyridin-2-yl)cyclohexyl)methyl)(3-(1-isopropyl-1H-pyrazol-4-yl)phenyl)carbamoyl)cyclohexyl 3-hydroxyazetidine-1-carboxylate]
COc1ccc([C@H]2CC[C@H](CN(c3cc(-c4cnn(C(C)C)c4)ccn3)C(=O)[C@H]3CC[C@H](OC(=O)NC(C)C)CC3)CC2)nc1C [Compound 7.44, trans-4-((4-(1-Isopropyl-1H-pyrazol-4-yl)pyridin-2-yl)((trans-4-(5-methoxy-6-methylpyridin-2-yl)cyclohexyl)methyl)carbamoyl)cyclohexyl isopropylcarbamate]
COc1ccc([C@H]2CC[C@H](CN(c3cc(-c4cnn(C(C)C)c4)ccn3)C(=O)[C@H]3CC[C@H](OC(=O)N(C)C)CC3)CC2)cc1C#N [Compound 7.45, trans-4-(((trans-4-(3-Cyano-4-methoxyphenyl)cyclohexyl)methyl)(4-(1-isopropyl-1H-pyrazol-4-yl)pyridin-2-yl)carbamoyl)cyclohexyl dimethylcarbamate]
COc1ccc([C@H]2CC[C@H](CN(c3cc(-c4cnn(C(C)C)c4)ccn3)C(=O)[C@H]3CC[C@H](OC(=O)N4CCC4)CC3)CC2)cc1C#N [Compound 7.46, trans-4-(((trans-4-(3-Cyano-4-methoxyphenyl)cyclohexyl)methyl)(4-(1-isopropyl-1H-pyrazol-4-yl)pyridin-2-yl)carbamoyl)cyclohexyl azetidine-1-carboxylate]
CCC1CN(C(=O)O[C@H]2CC[C@H](C(=O)N(C[C@H]3CC[C@H](c4ccc(OC)c(C#N)c4)CC3)c3cc(-c4cnn(C(C)C)c4)ccn3)CC2)C1 [Compound 7.47, trans-4-(((trans-4-(3-Cyano-4-methoxyphenyl)cyclohexyl)methyl)(4-(1-isopropyl-1H-pyrazol-4-yl)pyridin-2-yl)carbamoyl)cyclohexyl 3-ethylazetidine-1-carboxylate]
COc1ccc([C@H]2CC[C@H](CN(c3cc(-c4cnn(C(C)C)c4)ccn3)C(=O)[C@H]3CC[C@H](OC(=O)N4CC(OC)C4)CC3)CC2)cc1C#N [Compound 7.48, trans-4-(((trans-4-(3-Cyano-4-methoxyphenyl)cyclohexyl)methyl)(4-(1-isopropyl-1H-pyrazol-4-yl)pyridin-2-yl)carbamoyl)cyclohexyl 3-methoxyazetidine-1-carboxylate]
COc1ccc([C@H]2CC[C@H](CN(c3cc(-c4cnn(C(C)C)c4)ccn3)C(=O)[C@H]3CC[C@H](OC(=O)N4CC(OC(C)C)C4)CC3)CC2)cc1C#N [Compound 7.49, trans-4-(((trans-4-(3-Cyano-4-methoxyphenyl)cyclohexyl)methyl)(4-(1-isopropyl-1H-pyrazol-4-yl)pyridin-2-yl)carbamoyl)cyclohexyl 3-isopropoxyazetidine-1-carboxylate]
COc1ccc([C@H]2CC[C@H](CN(c3cc(-c4cnn(C(C)C)c4)ccn3)C(=O)[C@H]3CC[C@H](OC(=O)N4CC(N(C)C)C4)CC3)CC2)cc1C#N [Compound 7.50, trans-4-(((trans-4-(3-Cyano-4-methoxyphenyl)cyclohexyl)methyl)(4-(1-isopropyl-1H-pyrazol-4-yl)pyridin-2-yl)carbamoyl)cyclohexyl 3-(dimethylamino)azetidine-1-carboxylate]
COc1ccc([C@H]2CC[C@H](CN(c3cc(-c4cnn(C(C)C)c4)ccn3)C(=O)[C@H]3CC[C@H](OC(=O)N4CC(CO)C4)CC3)CC2)cc1C#N [Compound 7.51, trans-4-(((trans-4-(3-Cyano-4-methoxyphenyl)cyclohexyl)methyl)(4-(1-isopropyl-1H-pyrazol-4-yl)pyridin-2-yl)carbamoyl)cyclohexyl 3-(hydroxymethyl)azetidine-1-carboxylate]
COc1ccc([C@H]2CC[C@H](CN(c3cccc(-c4cnn(C(C)C)c4)c3)C(=O)[C@H]3CC[C@H](OC(=O)N4CC(OC)C4)CC3)CC2)nc1C [Compound 7.52, trans-4-((3-(1-Isopropyl-1H-pyrazol-4-yl)phenyl)((trans-4-(5-methoxy-6-methylpyridin-2-yl)cyclohexyl)methyl)carbamoyl)cyclohexyl 3-methoxyazetidine-1-carboxylate]
COc1ccc([C@H]2CC[C@H](CN(c3cccc(-c4cnn(C(C)C)c4)c3)C(=O)[C@H]3CC[C@H](OC(=O)N4CC(N(C)C)C4)CC3)CC2)nc1C [Compound 7.53, trans-4-((3-(1-Isopropyl-1H-pyrazol-4-yl)phenyl)((trans-4-(5-methoxy-6-methylpyridin-2-yl)cyclohexyl)methyl)carbamoyl)cyclohexyl 3-(dimethylamino)azetidine-1-carboxylate]
CCC1CN(C(=O)O[C@H]2CC[C@H](C(=O)N(C[C@H]3CC[C@H](c4ccc(OC)c(C)n4)CC3)c3cc(-c4cnn(C(C)C)c4)ccn3)CC2)C1 [Compound 7.54, trans-4-((4-(1-Isopropyl-1H-pyrazol-4-yl)pyridin-2-yl)((trans-4-(5-methoxy-6-methylpyridin-2-yl)cyclohexyl)methyl)carbamoyl)cyclohexyl 3-ethylazetidine-1-carboxylate]
